We go through eight compounds from patent US20250115590A1, “MATRIX METALLOPROTEINASE (MMP) INHIBITORS AND METHODS OF USE THEREOF” (Foresee Pharmaceuticals USA, Inc., priority 2018, published 2025).

Chain of recombinant human MMP-3 (P08254 100-477): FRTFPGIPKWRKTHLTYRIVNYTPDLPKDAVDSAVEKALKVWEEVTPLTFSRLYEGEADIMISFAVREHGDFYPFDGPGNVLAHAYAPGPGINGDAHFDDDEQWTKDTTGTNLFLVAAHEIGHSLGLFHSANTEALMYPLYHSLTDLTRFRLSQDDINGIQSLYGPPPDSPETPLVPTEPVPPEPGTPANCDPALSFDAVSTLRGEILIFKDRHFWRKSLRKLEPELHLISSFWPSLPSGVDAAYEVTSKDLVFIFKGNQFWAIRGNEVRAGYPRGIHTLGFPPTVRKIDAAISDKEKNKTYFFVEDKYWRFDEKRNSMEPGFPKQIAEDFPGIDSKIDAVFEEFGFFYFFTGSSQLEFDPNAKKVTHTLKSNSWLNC
Chain of recombinant human MMP-2 (P08253 110-660): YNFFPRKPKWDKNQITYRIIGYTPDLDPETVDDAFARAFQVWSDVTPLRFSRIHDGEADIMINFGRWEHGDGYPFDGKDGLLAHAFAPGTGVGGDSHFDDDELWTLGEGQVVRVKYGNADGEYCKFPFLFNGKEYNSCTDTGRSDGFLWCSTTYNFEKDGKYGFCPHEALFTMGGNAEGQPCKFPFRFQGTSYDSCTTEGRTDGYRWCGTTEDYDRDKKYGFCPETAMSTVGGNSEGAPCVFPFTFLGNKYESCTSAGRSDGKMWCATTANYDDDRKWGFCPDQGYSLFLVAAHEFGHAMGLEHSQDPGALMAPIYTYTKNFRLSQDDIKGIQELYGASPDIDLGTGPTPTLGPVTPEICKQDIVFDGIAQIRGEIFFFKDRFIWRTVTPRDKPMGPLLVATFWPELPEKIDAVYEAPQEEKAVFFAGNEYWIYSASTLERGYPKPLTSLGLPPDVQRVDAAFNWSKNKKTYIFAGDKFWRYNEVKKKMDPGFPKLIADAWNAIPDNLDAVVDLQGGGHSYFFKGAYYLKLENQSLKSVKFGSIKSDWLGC
Chain of recombinant human MMP-12 catalytic domain (P39900 106-268): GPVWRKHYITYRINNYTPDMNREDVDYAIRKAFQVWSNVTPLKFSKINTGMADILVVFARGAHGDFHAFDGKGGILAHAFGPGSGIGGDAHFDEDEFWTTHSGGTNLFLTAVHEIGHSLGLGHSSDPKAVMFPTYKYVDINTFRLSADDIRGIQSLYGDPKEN
Chain of recombinant human MMP-9 (P14780 94-707): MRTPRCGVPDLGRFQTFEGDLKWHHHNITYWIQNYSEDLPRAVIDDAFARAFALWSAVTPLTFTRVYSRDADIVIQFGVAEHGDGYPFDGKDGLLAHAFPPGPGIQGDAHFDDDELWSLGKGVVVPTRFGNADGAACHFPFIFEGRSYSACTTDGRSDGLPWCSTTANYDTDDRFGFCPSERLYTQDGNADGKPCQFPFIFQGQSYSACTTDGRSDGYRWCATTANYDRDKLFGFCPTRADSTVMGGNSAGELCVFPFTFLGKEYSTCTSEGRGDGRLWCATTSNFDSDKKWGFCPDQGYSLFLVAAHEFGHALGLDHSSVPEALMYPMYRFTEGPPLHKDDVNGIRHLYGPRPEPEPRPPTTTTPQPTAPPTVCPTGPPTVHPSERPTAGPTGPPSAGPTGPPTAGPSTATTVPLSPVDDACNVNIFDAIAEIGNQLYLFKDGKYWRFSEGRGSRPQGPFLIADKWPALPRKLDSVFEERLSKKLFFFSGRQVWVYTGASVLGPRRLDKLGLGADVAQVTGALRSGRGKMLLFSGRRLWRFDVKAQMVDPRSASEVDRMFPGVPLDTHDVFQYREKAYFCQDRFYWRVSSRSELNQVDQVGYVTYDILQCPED
Chain of recombinant human MMP-7 (P09237 95-267): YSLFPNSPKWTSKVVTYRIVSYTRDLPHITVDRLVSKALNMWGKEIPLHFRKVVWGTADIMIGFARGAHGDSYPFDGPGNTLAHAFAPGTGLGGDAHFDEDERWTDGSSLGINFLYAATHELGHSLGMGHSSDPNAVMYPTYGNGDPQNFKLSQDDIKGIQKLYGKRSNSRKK

One experiment concerns the target recombinant human MMP-3 (Homo sapiens (Human), UniProt P08254). As to the kind of experiment: MMP selectivity assay, MMP-3. Format: biochemical. The settings on record: Table 2 selectivity profile; read-out: MMP-3 Activity (IC50 class). As to the method: (§1) The inhibitory effect of compounds on the rate of cleaving fluorogenic MMP substrate (Enzo, BML-P128) by recombinant human MMP-12 catalytic domain (Enzo, BML-SE138) was carried out by methods known in the art. Briefly, to each well of a 96-well black opaque plate, all the reagents were sequentially added by pipetting, and the final reaction contained 4 nM of recombinant human MMP-12 catalytic domain, […] of fluorogenic MMP substrate, and various concentrations (0.15 nM to 10,000 nM) of tested compound dilutions in HEPES buffer (pH 7.5) containing 10 mM of CaCl2, 0.01% Brij® 35 (polyoxyethylene (23) lauryl ether), and 0.1 mg/ml of BSA.
(§2) The enzyme and compounds were pre-incubated on a shaker to mix in wells. After an hour of mixing, fluorogenic substrate was added to each well. Reaction without enzyme was used as a blank control in the plate. The plate was then fed into a plate reader to measure fluorescence intensity at Excitation/Emission wavelengths of 340 nm/440 nm every 10 mins for at least 1 hour at 37° C. The IC50 of each compound in MMP-12 inhibition was determined by using a readout obtained at time point 30 minutes.
(§3) The MMP selectivity assay was performed by using other recombinant human MMPs, including MMP-1, MMP-2, MMP-3, MMP-7, MMP-8, MMP-9, MMP-10, MMP-13, and MMP-14. The IC50 of the compounds for the other recombinant human MMPs was determined as described above in Example 1, and are shown in Table 2.
Regarding `Cc1cc(COc2ccc(Sc3ncoc3C3NC(=O)NC3=O)cc2)ccn1` (centres unmarked) [OC-7], the IC50 is over 1000 nM.
The same measure, in the same setting: the value for `Cc1cc(COc2ccc(Sc3cnn(C)c3C3NC(=O)NC3=O)cc2)ccn1` (centres unmarked) [OC-12] was over 1000 nM; that for `Cc1cc(COc2ccc(Sc3ncn(C)c3C3NC(=O)NC3=O)cc2)ccn1` (centres unmarked) [OC-13] was over 1000 nM; that for `O=C1NC(=O)C(c2cnccc2Sc2ccc(OCc3cccc(CO)c3)cc2)N1` (centres unmarked) [PC-8] was over 1000 nM.
Consider `O=C1NC(=O)C(c2cnccc2Sc2ccc(OCc3cccc(O)c3)cc2)N1` (centres unmarked) [PC-10], for which the concentration for half-maximal inhibition (IC50) is over 1000 nM.
`NC(=O)c1cccc(COc2ccc(Sc3ccncc3C3NC(=O)NC3=O)cc2)c1` (centres unmarked) [PC-28]: the IC50 was over 1000 nM.
In the case of `Cc1cc(COc2ccc(Sc3ccncc3C3NC(=O)NC3=O)cc2C)ccn1` (centres unmarked) [PC-48], the IC50 was over 1000 nM.
Turning to `Cc1cc(COc2ccc(Sc3ccncc3C3NC(=O)NC3=O)c(Cl)c2)ccn1` (centres unmarked) [PC-51], the IC50 is over 1000 nM.

In another experiment the target is recombinant human MMP-13 (Homo sapiens (Human), UniProt P45452). As to the kind of experiment: MMP selectivity assay, MMP-13. Format: biochemical. The settings on record: Table 2 selectivity profile; read-out: MMP-13 Activity (IC50 class). As to the method: as §1, §2, §3
With `O=C1NC(=O)C(c2cnccc2Sc2ccc(OCc3cccc(CO)c3)cc2)N1` (centres unmarked) [PC-8], the IC50 was over 1000 nM.
Still for that read-out and setting: to `O=C1NC(=O)C(c2cnccc2Sc2ccc(OCc3cccc(O)c3)cc2)N1` (centres unmarked) [PC-10] belongs over 1000 nM.

Another experiment deals with recombinant human MMP-7 (Homo sapiens (Human), UniProt P09237). In words: MMP selectivity assay, MMP-7. Format: biochemical. The settings on record: Table 2 selectivity profile; read-out: MMP-7 Activity (IC50 class). The method, then:
as §1
The enzyme and compounds were pre-incubated on a shaker to mix in wells. After an hour of mixing, fluorogenic substrate was added to each well. […] The plate was then fed into a plate reader to measure fluorescence intensity at Excitation/Emission wavelengths of 340 nm/440 nm every 10 mins for at least 1 hour at 37° C. The IC50 of each compound in MMP-12 inhibition was determined by using a readout obtained at time point 30 minutes.
as §3
Regarding `Cc1cc(COc2ccc(Sc3ccncc3C3NC(=O)NC3=O)c(Cl)c2)ccn1` (centres unmarked) [PC-51], the IC50 is over 1000 nM.

The target in another experiment is recombinant human MMP-14 (Homo sapiens (Human), UniProt P50281). As to the kind of experiment: MMP selectivity assay, MMP-14. In kind it is biochemical. The conditions noted are these: Table 2 selectivity profile; read-out: MMP-14 Activity (IC50 class). As to the method: as §1, §2, §3
In the case of `Cc1cc(COc2ccc(Sc3cnn(C)c3C3NC(=O)NC3=O)cc2)ccn1` (centres unmarked) [OC-12], the half-inhibitory concentration (IC50) is over 1000 nM.
Still for that read-out and setting: to `NC(=O)c1cccc(COc2ccc(Sc3ccncc3C3NC(=O)NC3=O)cc2)c1` (centres unmarked) [PC-28] belongs over 1000 nM; to `Cc1cc(COc2ccc(Sc3ccncc3C3NC(=O)NC3=O)c(Cl)c2)ccn1` (centres unmarked) [PC-51], over 1000 nM.

Another experiment addresses recombinant human MMP-9 (Homo sapiens (Human), UniProt P14780). In words: MMP selectivity assay, MMP-9. In kind it is biochemical. The conditions noted are these: Table 2 selectivity profile; read-out: MMP-9 Activity (IC50 class). As to the method:
as §1, §2, §3
`Cc1cc(COc2ccc(Sc3ncoc3C3NC(=O)NC3=O)cc2)ccn1` (centres unmarked) [OC-7]: the IC50 is over 1000 nM.
For the compound `Cc1cc(COc2ccc(Sc3cnn(C)c3C3NC(=O)NC3=O)cc2)ccn1` (centres unmarked) [OC-12], the IC50 was over 1000 nM.
Take `Cc1cc(COc2ccc(Sc3ncn(C)c3C3NC(=O)NC3=O)cc2)ccn1` (centres unmarked) [OC-13]: the IC50 is over 1000 nM.
Consider `O=C1NC(=O)C(c2cnccc2Sc2ccc(OCc3cccc(O)c3)cc2)N1` (centres unmarked) [PC-10], for which the IC50 is over 1000 nM.
`NC(=O)c1cccc(COc2ccc(Sc3ccncc3C3NC(=O)NC3=O)cc2)c1` (centres unmarked) [PC-28]: the IC50 was over 1000 nM.
Consider `Cc1cc(COc2ccc(Sc3ccncc3C3NC(=O)NC3=O)cc2C)ccn1` (centres unmarked) [PC-48], for which the IC50 was over 1000 nM.
Turning to `Cc1cc(COc2ccc(Sc3ccncc3C3NC(=O)NC3=O)c(Cl)c2)ccn1` (centres unmarked) [PC-51], the half-maximal inhibitory concentration (IC50) is over 1000 nM.

The target of a further experiment is recombinant human MMP-8 (Homo sapiens (Human), UniProt P22894). In words: MMP selectivity assay, MMP-8. Format: biochemical. The settings on record: Table 2 selectivity profile; read-out: MMP-8 Activity (IC50 class). The method, then: as §1, §2, §3
Chain of recombinant human MMP-8 (P22894 101-467): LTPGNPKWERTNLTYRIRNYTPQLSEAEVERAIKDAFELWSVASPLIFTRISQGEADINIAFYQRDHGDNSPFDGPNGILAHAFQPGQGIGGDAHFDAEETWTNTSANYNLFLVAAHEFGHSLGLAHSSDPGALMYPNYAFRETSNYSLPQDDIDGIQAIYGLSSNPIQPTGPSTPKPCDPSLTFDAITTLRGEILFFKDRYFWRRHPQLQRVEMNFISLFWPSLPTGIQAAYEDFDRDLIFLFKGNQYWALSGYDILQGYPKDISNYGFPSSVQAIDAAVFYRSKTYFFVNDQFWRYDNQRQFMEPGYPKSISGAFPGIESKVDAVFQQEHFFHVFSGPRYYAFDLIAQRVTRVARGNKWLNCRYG
On to `O=C1NC(=O)C(c2cnccc2Sc2ccc(OCc3cccc(O)c3)cc2)N1` (centres unmarked) [PC-10], for which the half-maximal inhibitory concentration (IC50) was over 1000 nM.
Regarding `Cc1cc(COc2ccc(Sc3ccncc3C3NC(=O)NC3=O)cc2C)ccn1` (centres unmarked) [PC-48], the IC50 is over 1000 nM.

For another experiment, the target named is recombinant human MMP-2 (Homo sapiens (Human), UniProt P08253). In words: MMP selectivity assay, MMP-2. Format: biochemical. The settings on record: Table 2 selectivity profile; read-out: MMP-2 Activity (IC50 class). As to the method:
as §1, §2, §3
As to `O=C1NC(=O)C(c2cnccc2Sc2ccc(OCc3cccc(CO)c3)cc2)N1` (centres unmarked) [PC-8], the IC50 was over 1000 nM.
For the compound `O=C1NC(=O)C(c2cnccc2Sc2ccc(OCc3cccc(O)c3)cc2)N1` (centres unmarked) [PC-10], the IC50 was over 1000 nM.
Still for that read-out and setting: the value for `NC(=O)c1cccc(COc2ccc(Sc3ccncc3C3NC(=O)NC3=O)cc2)c1` (centres unmarked) [PC-28] was over 1000 nM.
In the case of `Cc1cc(COc2ccc(Sc3ccncc3C3NC(=O)NC3=O)cc2C)ccn1` (centres unmarked) [PC-48], the IC50 was over 1000 nM.
For the compound `Cc1cc(COc2ccc(Sc3ccncc3C3NC(=O)NC3=O)c(Cl)c2)ccn1` (centres unmarked) [PC-51], the IC50 was over 1000 nM.

In the next experiment the target is recombinant human MMP-10 (Homo sapiens (Human), UniProt P09238). In words: MMP selectivity assay, MMP-10. In kind it is biochemical. The conditions noted are these: Table 2 selectivity profile; read-out: MMP-10 Activity (IC50 class). The method, then: as §1, §2, §3
Chain of recombinant human MMP-10 (P09238 99-476): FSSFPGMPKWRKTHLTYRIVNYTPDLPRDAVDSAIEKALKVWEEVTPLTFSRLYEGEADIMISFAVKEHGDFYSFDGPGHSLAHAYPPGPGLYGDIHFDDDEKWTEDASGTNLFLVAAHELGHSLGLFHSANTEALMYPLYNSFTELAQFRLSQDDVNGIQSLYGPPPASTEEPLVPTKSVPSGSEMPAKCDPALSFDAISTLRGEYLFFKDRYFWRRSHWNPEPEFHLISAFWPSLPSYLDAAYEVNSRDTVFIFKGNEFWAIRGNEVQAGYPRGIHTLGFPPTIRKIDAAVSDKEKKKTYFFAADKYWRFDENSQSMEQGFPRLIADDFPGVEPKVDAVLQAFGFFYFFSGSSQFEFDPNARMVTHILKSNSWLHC
Regarding `Cc1cc(COc2ccc(Sc3ncoc3C3NC(=O)NC3=O)cc2)ccn1` (centres unmarked) [OC-7], the IC50 was over 1000 nM.
In the case of `Cc1cc(COc2ccc(Sc3cnn(C)c3C3NC(=O)NC3=O)cc2)ccn1` (centres unmarked) [OC-12], the IC50 is over 1000 nM.
The same measure, in the same setting: the value for `Cc1cc(COc2ccc(Sc3ncn(C)c3C3NC(=O)NC3=O)cc2)ccn1` (centres unmarked) [OC-13] was over 1000 nM; that for `NC(=O)c1cccc(COc2ccc(Sc3ccncc3C3NC(=O)NC3=O)cc2)c1` (centres unmarked) [PC-28] was over 1000 nM.
As for `Cc1cc(COc2ccc(Sc3ccncc3C3NC(=O)NC3=O)cc2C)ccn1` (centres unmarked) [PC-48], the IC50 was over 1000 nM.
For the compound `Cc1cc(COc2ccc(Sc3ccncc3C3NC(=O)NC3=O)c(Cl)c2)ccn1` (centres unmarked) [PC-51], the IC50 is over 1000 nM.

Another experiment has as its target recombinant human MMP-12 catalytic domain (Homo sapiens (Human), UniProt P39900). As to the kind of experiment: MMP-12 inhibitory assay (fluorogenic substrate cleavage). Format: biochemical. The conditions noted are these: Table 2 selectivity profile; read-out: MMP-12 Activity (IC50 class). The method, then:
as §1, §2
As to `Cc1cc(COc2ccc(Sc3ncoc3C3NC(=O)NC3=O)cc2)ccn1` (centres unmarked) [OC-7], the IC50 was under 10 nM.
Consider `Cc1cc(COc2ccc(Sc3cnn(C)c3C3NC(=O)NC3=O)cc2)ccn1` (centres unmarked) [OC-12], for which the IC50 was under 10 nM.
Same read-out and setting: to `Cc1cc(COc2ccc(Sc3ncn(C)c3C3NC(=O)NC3=O)cc2)ccn1` (centres unmarked) [OC-13] belongs under 10 nM; to `O=C1NC(=O)C(c2cnccc2Sc2ccc(OCc3cccc(CO)c3)cc2)N1` (centres unmarked) [PC-8], under 10 nM; to `O=C1NC(=O)C(c2cnccc2Sc2ccc(OCc3cccc(O)c3)cc2)N1` (centres unmarked) [PC-10], under 10 nM.
As for `NC(=O)c1cccc(COc2ccc(Sc3ccncc3C3NC(=O)NC3=O)cc2)c1` (centres unmarked) [PC-28], the IC50 was under 10 nM.
Still for that read-out and setting: the value for `Cc1cc(COc2ccc(Sc3ccncc3C3NC(=O)NC3=O)cc2C)ccn1` (centres unmarked) [PC-48] was under 10 nM; that for `Cc1cc(COc2ccc(Sc3ccncc3C3NC(=O)NC3=O)c(Cl)c2)ccn1` (centres unmarked) [PC-51] was under 10 nM.

Staying with this experiment, now noted: readout at 30 minutes, 37° C., pH 7.5; Table 1; read-out: MMP-12 IC50.
For the compound `Cc1cc(COc2ccc(Sc3ncoc3C3NC(=O)NC3=O)cc2)ccn1` (centres unmarked) [OC-7], the IC50 is under 10 nM.
For `Cc1cc(COc2ccc(Sc3cnn(C)c3C3NC(=O)NC3=O)cc2)ccn1` (centres unmarked) [OC-12], the IC50 is under 10 nM.
On to `Cc1cc(COc2ccc(Sc3ncn(C)c3C3NC(=O)NC3=O)cc2)ccn1` (centres unmarked) [OC-13], for which the IC50 is under 10 nM.
For `O=C1NC(=O)C(c2cnccc2Sc2ccc(OCc3cccc(CO)c3)cc2)N1` (centres unmarked) [PC-8], the IC50 was under 10 nM.
As for `O=C1NC(=O)C(c2cnccc2Sc2ccc(OCc3cccc(O)c3)cc2)N1` (centres unmarked) [PC-10], the IC50 is under 10 nM.
In the case of `NC(=O)c1cccc(COc2ccc(Sc3ccncc3C3NC(=O)NC3=O)cc2)c1` (centres unmarked) [PC-28], the IC50 is under 10 nM.
Take `Cc1cc(COc2ccc(Sc3ccncc3C3NC(=O)NC3=O)cc2C)ccn1` (centres unmarked) [PC-48]: the IC50 was under 10 nM.
As to `Cc1cc(COc2ccc(Sc3ccncc3C3NC(=O)NC3=O)c(Cl)c2)ccn1` (centres unmarked) [PC-51], the IC50 is under 10 nM.

Broadly, the IC50 is the concentration that gives 50% inhibition.
